The values below come from patent US20170087104A1, “MEDICAMENT” (AFT Pharmaceuticals Ltd., priority 2013, published 2017).

Where a name gives a salt, the structure may show the parent alone.

Data set [1] is described as follows: First crossover study: absorption of phenylephrine, PE HCl alone vs Maxigesic PE (28 adult subjects). The format is in vivo. The settings on record: human, 10 mg; phenylephrine in blood plasma, mean, oral tablets, n = 28 adult humans.
The nature of data set [2]: Third cross-over study: Maxiclear PE 2.5 (two tablets) vs Sudafed PE (6 adult subjects). The settings on record: human, oral, 10 mg; phenylephrine in plasma, mean, untransformed data, n = 6 adult humans. The format is in vivo.

With `CNC[C@H](O)c1cccc(O)c1` [10 mg phenylephrine hydrochloride, phenylephrine hydrochloride], the Cmax in data set [1] stood at 0.874 ng/mL; in data set [2] it was 1.13 ng/mL. Also, the Tmax in data set [1] and in data set [2] was 42 min in each case.

One may read the Cmax as the maximum level reached in the sampled fluid or tissue. A word on the Tmax: it is the time at which the peak concentration occurs.
